Measurements from publication PMC7426938, “Induction of mitochondria-mediated apoptosis and suppression of tumor growth in zebrafish xenograft model by cyclic dipeptides identified from Exiguobacterium acetylicum” (Scientific Reports, 2020).

What was measured:
[1] = tested on: Cytc (Cytochrome-c) mRNA in HT-29 cells; experiment: sqRT-PCR gene expression, Cytc; assay type: cell-based, human; conditions: 200 μM, 24 h, vs untreated cells
Description: (§1) Total RNA was isolated from HT-29 cells using the TRIzol reagent (TaKara, Japan) following the manufacturer’s instruction. The quantity and quality of each RNA sample were analyzed with a NanoDrop-1000 (Thermo Fisher Scientific, USA), followed by conversion to cDNA using RevertAid cDNA synthesis kit (Thermo Fisher Scientific, CA, USA) using 1 μg of mRNA to synthesize cDNA. Semi-quantitative reverse transcriptase-polymerase chain (sqRT-PCR) reaction was carried out in a Veriti Thermal Cycler (Applied Biosystems, CA, USA) using 2X Taq DNA polymerase Master Mix RED (Ampliqon, Denmark, Germany) as we previously described method. All sqRT-PCRs were run for at least three times. GAPDH served as a housekeeping gene to normalize the expression levels. The expression levels were analyzed by measuring the intensity of the band from the gel using Image-J software.

[2] = tested on: Casp-3 (Caspase-3) mRNA in HT-29 cells; experiment: sqRT-PCR gene expression, Casp-3; assay type: cell-based, human; conditions: 200 μM, 24 h, vs untreated cells
Description: as §1

zebrafish (ABiC) embryos = experiment: Zebrafish embryo developmental toxicity assay; assay type: in vivo, zebrafish (Danio rerio); design: unit not given here
Description: Laboratory animal care principles were followed and experimental procedures were conducted following guidelines established by the Institutional Animal Care, and Use Committee (IACUC), and every effort was made to minimize suffering. This study was approved by the IACUC of the Kaohsiung Medical University, Kaohsiung, Taiwan (Approval No: KMU-IACUC-105213). The wild-type (ABiC strain) zebrafish (Danio rerio) were maintained at 28 °C on a 14 h/10 h light/dark cycle under standard circulating water systems and fed with hatched brine shrimp. Embryos were obtained by natural mating male fish with female fish (2:3) in a water tank and eggs were maintained in a plastic Petri dish containing ad libitum water. After 4 h incubation, embryos were randomly divided into five experimental groups (control (without treatment), sham/vehicle control (DMSO), and three treatment groups for each cyclic dipeptide. Each group had 45 embryos per test dosage. All DKPs were tested at different doses varied from 50, 100 and 200 μM, respectively. After drug treatment, embryos were maintained in an incubator at 28 °C. The survival rate and embryonic developmental changes were observed by using an inverted microscope every 24 h interval for 96 h (Nikon Eclipse TE2000-U, Tokyo, Jap).

[3] = tested on: CM-Dil labelled HT-29 xenograft in zebrafish embryos; experiment: Zebrafish HT-29 xenograft antitumor assay; assay type: in vivo, zebrafish (Danio rerio); design: inhibition of tumor growth: concentration or dose not given beside the values; conditions: for inhibition of tumor growth: 24 hpi; for inhibition of tumor growth rate: 48 hpi; for inhibition of tumor growth rate / tumor growth reduction: 200 μM; for tumor growth reduction: 72 hpi
Description: For cell labelling, HT-29 cells were incubated with cell tracker CM-Dil (Invitrogen, Carlsbad, CA, USA) dye at a final volume was 20 µL/mL for 25 min at 37 °C. To remove the unstrained dye, cells were washed twice and re-suspended with 1X PBS, pH 7.4 to a final density of 2.1 × 10^6 cells/mL. Prior transplantation, CM-Dil labelled cells were assessed for viability using trypan blue exclusion assay. More than > 90% of viable cells were used. For xenotransplantation, 48-hours post-fertilization (hpf) wild-type ABiC embryos were anaesthetized in 0.01% tricaine methanesulfonate (Sigma-Aldrich; MS222) solution containing 0.3% phenylthiocarbamide (PTU; Sigma-Aldrich; P7629). After anesthetization, CM-Dil (a lipophilic fluorescent tracking dye) labelled HT-29 cells grafted into the yolk sac of each zebrafish embryos by using a microinjector IM-300 (Narishige, Tokyo, Japan). After injection, embryos were incubated for 1 h at 28 °C. For confirmation of the visible cell mass at the injection site, zebrafish were transferred to an incubator and maintained at 37 °C.
[…] CM-Dil labelled HT-29 xenograft zebrafish embryos were randomly selected and hosed into 4 replicate wells in 12-well cell culture plates (5 embryos/well; 20 embryos/treatment group; 20 × 4 = 80). The different doses (50, 100 and 200 μM) of all DKPs were treated with transplanted embryos. Before DKPs treatment, the initial fluorescence intensity of transplanted cancer cells was measured at 0 hour post-injection (hpi). At the end of experiment 24, 48, and 72 hpi, all embryos were selected from each well and were photographed under an inverted fluorescence microscope (Nikon Eclipse TE2000-U, Tokyo, Japan). The following acquisition parameters were employed over time: Image scaling: Low = 130; High = 2,900; Exposure Time = 100 ms and Binning = 1. The fluorescence intensity of the tumor in the embryos was measured and the percentage of tumor growth inhibition was calculated according to the following formula: Inhibitionrate(%)=Z(Negativecontrol)-Z(Treatment)/Z(Negativecontrol)×100%

[4] = tested on: Cytc protein in HT-29 cells; experiment: Western blot, Cytc protein; assay type: cell-based, human; conditions: 100 μM, 24 h, whole-cell lysate, vs untreated cells
Description: Total protein was isolated from HT-29 cells by using lysis buffer. Cells were collected by centrifugation at 1,500 rpm for 5 min. After that, cell pellets were re-suspended with RIPA lysis buffer consisting of 1 mM protease inhibitor cocktail (PIC; Sigma-Aldrich; P8340) and lysed at […] for 1 h. After incubation, the protein was obtained by centrifugation at 13,000 × g for 15 min and kept for − 80 °C until analysis. Also, mitochondrial and cytosolic fractions were obtained by using fraction lysis buffer as described previously[50] with minor modifications. Lysed cells were kept in ice for 10 min and then cells were triturated by a 27 gauge syringe (25 strokes) to become homogeneous followed by centrifugation at 13,000 × g for 30 min. The collected supernatant was the cytosolic fraction. After the pellet was washed with lysis buffer and it was dissolved in lysis buffer for protein quantification. Protein concentration was measured by Pierce BCA protein assay kit (Thermo Scientific Laboratories, Rockford, USA) according to the manufacturer instructions. Equal amounts of proteins from all samples were separated by 10% SDS–polyacrylamide gel electrophoresis (SDS-PAGE) and electrotransferred. Polyvinylidene difluoride (PVDF) membrane was blocked with 5% skimmed milk for 1 h, followed by incubation with primary (Cytochrome-c: sc-13560; Bid: sc-11423; COX-IV: #4850; 1:2000; GAPDH: #3683; 1:10,000) and HRP-conjugated secondary (Got Anti-mouse IgG: 20102; Got anti-rabbit IgG: 20202: 1:10,000) antibodies against specific proteins. The protein signals were detected by Enhanced Chemiluminescence (ECL) detection kit (Amersham Piscataway, NJ, USA). The protein expression levels were analyzed by measuring the intensity of the band from scanned films using Image-J software. GAPDH and COX-IV served as a housekeeping protein to normalize the expression levels.

SMILES: O=C1N[C@@H](Cc2ccccc2)C(=O)N2CCC[C@@H]12 [DKP-3, cyclo (L-Pro-L-Phe)]
- Cytc gene expression up-regulation [1]: 4.29 fold
- Casp-3 gene expression up-regulation [2]: 1.76 fold
- Mean survival rate of zebrafish embryos (zebrafish (ABiC) embryos; 24 hpf, 50 μM): 80 ± 5.96
- Mean survival rate of zebrafish embryos (zebrafish (ABiC) embryos; 24 hpf, 100 μM): 80 ± 5.96
- Mean survival rate of zebrafish embryos (zebrafish (ABiC) embryos; 24 hpf, 200 μM): 75.55 ± 4.12
- Mean survival rate of zebrafish embryos (zebrafish (ABiC) embryos; 48 hpf, 50 μM): 80 ± 5.96
- Mean survival rate of zebrafish embryos (zebrafish (ABiC) embryos; 48 hpf, 100 μM): 80 ± 5.96
- Mean survival rate of zebrafish embryos (zebrafish (ABiC) embryos; 48 hpf, 200 μM): 75.55 ± 4.12
- Mean survival rate of zebrafish embryos (zebrafish (ABiC) embryos; 72 hpf, 50 μM): 77.77 ± 9.10
- Mean survival rate of zebrafish embryos (zebrafish (ABiC) embryos; 72 hpf, 100 μM): 80 ± 5.96
- Mean survival rate of zebrafish embryos (zebrafish (ABiC) embryos; 72 hpf, 200 μM): 73.33 ± 5.96
- Mean survival rate of zebrafish embryos (zebrafish (ABiC) embryos; 96 hpf, 50 μM): 68.88 ± 6.88
- Mean survival rate of zebrafish embryos (zebrafish (ABiC) embryos; 96 hpf, 100 μM): 80 ± 5.96
- Mean survival rate of zebrafish embryos (zebrafish (ABiC) embryos; 96 hpf, 200 μM): 69.22 ± 12
- inhibition of tumor growth [3]: > 30%
- inhibition of tumor growth rate [3]: 68%
- tumor growth reduction [3]: 81%
- tumor growth inhibition rates compared to other peptides ([3]; all time intervals, different doses): highest tumor growth inhibition rates
- Cytc protein expression up-regulation [4]: 1.45 fold

SMILES: CC(C)C[C@@H]1NC(=O)[C@@H]2CCCN2C1=O [DKP-1, cyclo (L-Pro-L-Leu)]
- Cytc gene expression up-regulation [1]: 2.32 fold
- Casp-3 gene expression up-regulation [2]: 2.32 fold
- Mean survival rate of zebrafish embryos (zebrafish (ABiC) embryos; 24 hpf, 50 μM): 70.88 ± 3.44
- Mean survival rate of zebrafish embryos (zebrafish (ABiC) embryos; 24 hpf, 100 μM): 73.33 ± 5.96
- Mean survival rate of zebrafish embryos (zebrafish (ABiC) embryos; 24 hpf, 200 μM): 75 ± 5.77
- Mean survival rate of zebrafish embryos (zebrafish (ABiC) embryos; 48 hpf, 50 μM): 70.88 ± 5.96
- Mean survival rate of zebrafish embryos (zebrafish (ABiC) embryos; 48 hpf, 100 μM): 71.11 ± 1.54
- Mean survival rate of zebrafish embryos (zebrafish (ABiC) embryos; 48 hpf, 200 μM): 73.33 ± 3.32
- Mean survival rate of zebrafish embryos (zebrafish (ABiC) embryos; 72 hpf, 50 μM): 71.11 ± 3.44
- Mean survival rate of zebrafish embryos (zebrafish (ABiC) embryos; 72 hpf, 100 μM): 71.11 ± 5.55
- Mean survival rate of zebrafish embryos (zebrafish (ABiC) embryos; 72 hpf, 200 μM): 68.88 ± 6.91
- Mean survival rate of zebrafish embryos (zebrafish (ABiC) embryos; 96 hpf, 50 μM): 66.66 ± 5.96
- Mean survival rate of zebrafish embryos (zebrafish (ABiC) embryos; 96 hpf, 100 μM): 71.11 ± 9.10
- Mean survival rate of zebrafish embryos (zebrafish (ABiC) embryos; 96 hpf, 200 μM): 66.66 ± 5.96
- inhibition of tumor growth rate [3]: 57%
- tumor growth reduction [3]: 68%
- Cytc protein expression up-regulation [4]: 1.21 fold

SMILES: O=C1N[C@@H](Cc2ccc(O)cc2)C(=O)N2CCC[C@@H]12 [DKP-4, cyclo (L-Pro-L-Tyr)]
- Cytc gene expression up-regulation [1]: 3.62 fold
- Casp-3 gene expression up-regulation [2]: 2.73 fold
- Mean survival rate of zebrafish embryos (zebrafish (ABiC) embryos; 24 hpf, 50 μM): 79 ± 3.96
- Mean survival rate of zebrafish embryos (zebrafish (ABiC) embryos; 24 hpf, 100 μM): 82 ± 2.96
- Mean survival rate of zebrafish embryos (zebrafish (ABiC) embryos; 24 hpf, 200 μM): 71.55 ± 5.12
- Mean survival rate of zebrafish embryos (zebrafish (ABiC) embryos; 48 hpf, 50 μM): 79 ± 3.96
- Mean survival rate of zebrafish embryos (zebrafish (ABiC) embryos; 48 hpf, 100 μM): 81 ± 2.96
- Mean survival rate of zebrafish embryos (zebrafish (ABiC) embryos; 48 hpf, 200 μM): 70.34 ± 3.33
- Mean survival rate of zebrafish embryos (zebrafish (ABiC) embryos; 72 hpf, 50 μM): 75.51 ± 3.32
- Mean survival rate of zebrafish embryos (zebrafish (ABiC) embryos; 72 hpf, 200 μM): 70.54 ± 3.51
- Mean survival rate of zebrafish embryos (zebrafish (ABiC) embryos; 96 hpf, 50 μM): 71.11 ± 2.44
- Mean survival rate of zebrafish embryos (zebrafish (ABiC) embryos; 96 hpf, 100 μM): 79.3 ± 2.77
- Mean survival rate of zebrafish embryos (zebrafish (ABiC) embryos; 96 hpf, 200 μM): 68.24 ± 5.89
- inhibition of tumor growth [3]: > 30%
- inhibition of tumor growth rate [3]: 60%
- tumor growth reduction [3]: 74%
- Cytc protein expression up-regulation [4]: 1.85 fold

SMILES: CC(C)[C@@H]1NC(=O)[C@@H]2CCCN2C1=O [DKP-2, cyclo (L-Pro-L-Val)]
- Cytc gene expression up-regulation [1]: 1.78 fold
- Casp-3 gene expression up-regulation [2]: 1.31 fold
- Mean survival rate of zebrafish embryos (zebrafish (ABiC) embryos; 24 hpf, 50 μM): 77.77 ± 5.41
- Mean survival rate of zebrafish embryos (zebrafish (ABiC) embryos; 24 hpf, 100 μM): 82.22 ± 4.41
- Mean survival rate of zebrafish embryos (zebrafish (ABiC) embryos; 24 hpf, 200 μM): 75.55 ± 3.44
- Mean survival rate of zebrafish embryos (zebrafish (ABiC) embryos; 48 hpf, 50 μM): 80 ± 5.96
- Mean survival rate of zebrafish embryos (zebrafish (ABiC) embryos; 48 hpf, 100 μM): 80 ± 5.96
- Mean survival rate of zebrafish embryos (zebrafish (ABiC) embryos; 48 hpf, 200 μM): 75.55 ± 3.44
- Mean survival rate of zebrafish embryos (zebrafish (ABiC) embryos; 72 hpf, 50 μM): 68.88 ± 3.44
- Mean survival rate of zebrafish embryos (zebrafish (ABiC) embryos; 72 hpf, 100 μM): 77.33 ± 3.44
- Mean survival rate of zebrafish embryos (zebrafish (ABiC) embryos; 72 hpf, 200 μM): 71.11 ± 6.88
- Mean survival rate of zebrafish embryos (zebrafish (ABiC) embryos; 96 hpf, 50 μM): 66.66 ± 5.96
- Mean survival rate of zebrafish embryos (zebrafish (ABiC) embryos; 96 hpf, 100 μM): 71.11 ± 9.10
- Mean survival rate of zebrafish embryos (zebrafish (ABiC) embryos; 96 hpf, 200 μM): 66.66 ± 5.96
- inhibition of tumor growth [3]: > 30%
- inhibition of tumor growth rate [3]: 58%
- tumor growth reduction [3]: 78%
